Test system: CN0375-F725-PDC multi-cell spheroids, viability
Assay: Anticancer human tumor CN0375-F725-PDC patient-derived colon carcinoma cell line growth inhibition [TAK]
Conditions: for IC50: curve of first compound; for viability, T/C: stronger effect = lower value
Procedure, shortened: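 Drug combinations, each paired with TAK-243 or ipatasertib, were tested on multi-cell spheroids of 60% malignant cells, 25% HUVEC and 15% hMSC. Top concentrations were at or near the clinical Cmax (10 microM if undetermined), decreasing by half-log; viability is given as % test/control.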
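Further: spheroids exposed to drugs for seven days.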
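Wherever viability, T/C is given: 100% = DMSO vehicle control wells.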

CC(=O)Nc1cccc(-n2c(=O)n(C3CC3)c(=O)c3c(Nc4ccc(I)cc4F)n(C)c(=O)c(C)c32)c1 + CC(C)NCC(C(=O)N1CCN(c2ncnc3c2C(C)CC3O)CC1)c1ccc(Cl)cc1
IC50 (second compound 0.3 µM): 9.39 nM
IC50 (second compound 0.949 µM): 5.66 nM
IC50 (second compound 3 µM): 5.23 nM
IC50 (second compound 9.49 µM): 4.87 nM
IC50 (second compound 30 µM): 1.23 nM
viability, T/C (second compound 0.3 µM, first compound 94.9 pM): 99.7%
viability, T/C (second compound 0.3 µM, first compound 0.0003 µM): 93%
viability, T/C (second compound 0.3 µM, first compound 0.000949 µM): 74.4%
viability, T/C (second compound 0.3 µM, first compound 0.003 µM): 68.9%
viability, T/C (second compound 0.3 µM, first compound 0.00949 µM): 48.6%
viability, T/C (second compound 0.3 µM, first compound 0.03 µM): 33.7%
viability, T/C (second compound 0.949 µM, first compound 94.9 pM): 92.4%
viability, T/C (second compound 0.949 µM, first compound 0.0003 µM): 86.3%
viability, T/C (second compound 0.949 µM, first compound 0.000949 µM): 75.5%
viability, T/C (second compound 0.949 µM, first compound 0.003 µM): 57.1%
viability, T/C (second compound 0.949 µM, first compound 0.00949 µM): 44.3%
viability, T/C (second compound 0.949 µM, first compound 0.03 µM): 31.5%
viability, T/C (second compound 3 µM, first compound 94.9 pM): 88.1%
viability, T/C (second compound 3 µM, first compound 0.0003 µM): 83.5%
viability, T/C (second compound 3 µM, first compound 0.000949 µM): 70%
viability, T/C (second compound 3 µM, first compound 0.003 µM): 56.3%
viability, T/C (second compound 3 µM, first compound 0.00949 µM): 43.6%
viability, T/C (second compound 3 µM, first compound 0.03 µM): 30.1%
viability, T/C (second compound 9.49 µM, first compound 94.9 pM): 81.4%
viability, T/C (second compound 9.49 µM, first compound 0.0003 µM): 82.7%
viability, T/C (second compound 9.49 µM, first compound 0.000949 µM): 69.9%
viability, T/C (second compound 9.49 µM, first compound 0.003 µM): 57.4%
viability, T/C (second compound 9.49 µM, first compound 0.00949 µM): 40.3%
viability, T/C (second compound 9.49 µM, first compound 0.03 µM): 26.1%
viability, T/C (second compound 30 µM, first compound 94.9 pM): 70%
viability, T/C (second compound 30 µM, first compound 0.0003 µM): 67.5%
viability, T/C (second compound 30 µM, first compound 0.000949 µM): 53%
viability, T/C (second compound 30 µM, first compound 0.003 µM): 36.1%
viability, T/C (second compound 30 µM, first compound 0.00949 µM): 24.1%
viability, T/C (second compound 30 µM, first compound 0.03 µM): 13.6%

CC(C)(C)c1nc(-c2cccc(NS(=O)(=O)c3c(F)cccc3F)c2F)c(-c2ccnc(N)n2)s1 + CC(C)NCC(C(=O)N1CCN(c2ncnc3c2C(C)CC3O)CC1)c1ccc(Cl)cc1
IC50 (second compound 0.3 µM): > 10000 nM
IC50 (second compound 0.949 µM): > 10000 nM
IC50 (second compound 3 µM): > 10000 nM
IC50 (second compound 9.49 µM): > 10000 nM
IC50 (second compound 30 µM): > 10000 nM
viability, T/C (second compound 0.3 µM, first compound 0.0316 µM): 121%
viability, T/C (second compound 0.3 µM, first compound 0.1 µM): 128%
viability, T/C (second compound 0.3 µM, first compound 0.316 µM): 124%
viability, T/C (second compound 0.3 µM, first compound 1 µM): 118%
viability, T/C (second compound 0.3 µM, first compound 3.16 µM): 105%
viability, T/C (second compound 0.3 µM, first compound 10 µM): 108%
viability, T/C (second compound 0.949 µM, first compound 0.0316 µM): 123%
viability, T/C (second compound 0.949 µM, first compound 0.1 µM): 125%
viability, T/C (second compound 0.949 µM, first compound 0.316 µM): 120%
viability, T/C (second compound 0.949 µM, first compound 1 µM): 111%
viability, T/C (second compound 0.949 µM, first compound 3.16 µM): 95%
viability, T/C (second compound 0.949 µM, first compound 10 µM): 107%
viability, T/C (second compound 3 µM, first compound 0.0316 µM): 108%
viability, T/C (second compound 3 µM, first compound 0.1 µM): 119%
viability, T/C (second compound 3 µM, first compound 0.316 µM): 120%
viability, T/C (second compound 3 µM, first compound 1 µM): 103%
viability, T/C (second compound 3 µM, first compound 3.16 µM): 94.9%
viability, T/C (second compound 3 µM, first compound 10 µM): 92.1%
viability, T/C (second compound 9.49 µM, first compound 0.0316 µM): 98%
viability, T/C (second compound 9.49 µM, first compound 0.1 µM): 108%
viability, T/C (second compound 9.49 µM, first compound 0.316 µM): 105%
viability, T/C (second compound 9.49 µM, first compound 1 µM): 97.9%
viability, T/C (second compound 9.49 µM, first compound 3.16 µM): 85.4%
viability, T/C (second compound 9.49 µM, first compound 10 µM): 86.2%
viability, T/C (second compound 30 µM, first compound 0.0316 µM): 94.3%
viability, T/C (second compound 30 µM, first compound 0.1 µM): 102%
viability, T/C (second compound 30 µM, first compound 0.316 µM): 89.6%
viability, T/C (second compound 30 µM, first compound 1 µM): 79.3%
viability, T/C (second compound 30 µM, first compound 3.16 µM): 77.7%
viability, T/C (second compound 30 µM, first compound 10 µM): 75%

Source: PubChem BioAssay AID2060346 (Molecular Pharmacology Branch, DTP, NCI, 2025)
